Each block holds one molecule with its values, some of them ahead of it.
Columns and labels:
[1] = test system: MCF-7 breast cancer xenografts; experiment: MCF-7 kidney capsule xenografts; details: 28 days; E2 0.5 mg/h, Calycosin 2.5 mg/h in saline; FIG. 5
Protocol: MCF-7 xenografts were introduced into nude mouse kidneys. Mice were randomized to three treatment groups. […] Each treatment group was treated for 28 days, after which mice were euthanized and the kidneys containing the xenografts were excised, photographed and weighed.

[2] = target: ERβ (Homo sapiens, UniProt Q92731); details: in the presence of ERβ
Excerpt: (§1) Light emission at 560 nm is conveniently quantified in optical density units (O.D.560 nm).

[3] = test system: TNF-RE tkLuc; experiment: TNF-RE tkLuc reporter, effect of antiestrogens; type: cell-based; details: in contrast to E2
Excerpt: as §1

[4] = target: estrogen receptor beta (ERβ) (Homo sapiens, UniProt Q92731); details: added to (a), (b), (c) or (d); FIGS. 4a-4d
Sequence of estrogen receptor beta (ERβ) (Q92731 whole entry): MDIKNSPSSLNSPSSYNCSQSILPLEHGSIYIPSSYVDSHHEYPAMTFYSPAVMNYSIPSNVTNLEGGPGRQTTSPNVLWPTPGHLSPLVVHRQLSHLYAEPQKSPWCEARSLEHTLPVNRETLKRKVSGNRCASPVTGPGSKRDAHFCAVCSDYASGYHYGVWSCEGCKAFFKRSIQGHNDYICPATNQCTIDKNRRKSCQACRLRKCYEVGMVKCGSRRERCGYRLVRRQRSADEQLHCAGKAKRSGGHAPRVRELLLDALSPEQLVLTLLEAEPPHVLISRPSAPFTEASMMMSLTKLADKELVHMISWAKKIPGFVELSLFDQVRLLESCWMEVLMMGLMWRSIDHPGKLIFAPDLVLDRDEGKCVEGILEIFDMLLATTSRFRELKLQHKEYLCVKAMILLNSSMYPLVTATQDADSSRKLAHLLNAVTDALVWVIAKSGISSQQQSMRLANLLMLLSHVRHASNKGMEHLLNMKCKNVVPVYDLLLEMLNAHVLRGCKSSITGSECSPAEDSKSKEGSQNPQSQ

[5] = test system: breast cancer; details: among 5129 women in the treatment group; median follow-up 40 months; cited from earlier work
[6] = test system: primary invasive breast cancer; details: women at high risk for breast cancer; cited from earlier work
[7] = test system: estrogen receptor-positive breast cancer; details: five years of therapy; cited from earlier work

Sequence of ERβ (Q92731 whole entry): as above

SMILES: COc1ccc(-c2coc3cc(O)ccc3c2=O)cc1O [Calycosin, 3-(4-methoxy-3-hydroxyphenyl)-7-hydroxycoumarin]
- growth of MCF-7 kidney capsule xenografts as compared to control [1]: inhibits the growth of MCF-7 breast cancer xenografts

- repression of TNF-α activation of TNF-RE tkLuc [2]: 60-80%
SMILES: C[C@]12CC[C@@H]3c4ccc(O)cc4CC[C@H]3[C@@H]1CC[C@@H]2O [E2, estradiol]

SMILES: C[C@]12CC[C@@H]3c4ccc(O)cc4C[C@@H](CCCCCCCCC[S+]([O-])CCCC(F)(F)C(F)(F)F)[C@H]3[C@@H]1CC[C@@H]2O (stereo partly shown) [ICI 182780]
- activation of TNF-RE tkLuc [3]: 2 fold

- effect of addition on ERE activation by compounds (a)-(d) through ERβ [4]: reduced this activation
SMILES: O=C(c1ccc(OCCN2CCCCC2)cc1)c1c(-c2ccc(O)cc2)sc2cc(O)ccc12 [raloxifene]
- activation of TNF-RE tkLuc [3]: 2 fold
- cases of breast cancer [5]: 13 cases

SMILES: CC/C(=C(\c1ccccc1)c1ccc(OCCN(C)C)cc1)c1ccccc1 [tamoxifen]
- reduction of the risk of primary invasive breast cancer [6]: 49%
- activation of TNF-RE tkLuc [3]: 2 fold
- reduction of mortality from breast cancer [7]: 22%
- reduction of the risk of recurrences [7]: 42%
